Reference: patent US20150315218A1, “SALTS OF PRODRUGS OF PIPERAZINE AND SUBSTITUTED PIPERIDINE ANTIVIRAL AGENTS” (Bristol-Myers Squibb Company, priority 2004, published 2015)
Values after ≈ are worked out from the molar mass of the structure shown. Like-named read-outs stand apart in the source and are kept apart here. One block for each molecule: values may come before it.

How the values were obtained:
[1] = Oral dosing studies of prodrugs Ie and If in rats (Table 47); format: in vivo, rat; settings: for parent molecule in plasma following PO dosing of prodrug: rats, oral dosing of prodrug Ie or If
Protocol: Prodrug Ie was dosed orally to rats using methodology similar to that described above for the other prodrugs. […] Prodrug If was dosed orally to rats using methodology similar to that described above for the other prodrugs.

[2] = target: T1, alkaline phosphatase (human placenta, Sigma) (Homo sapiens, UniProt P05187); assay: In vitro conversion in alkaline phosphatase (Table 1, note 1); format: in vitro ADME; settings: ~0.2 mM prodrug, ~1.4 unit ALP, pH 8 Tris buffer; full wording: Complete and rapid conversion to parent without any intermediate formation
T1 construct: Qualitative in vitro studies using human placental alkaline phosphatase; purchased Sigma; host or cells: human placenta (as the result head says)

[3] = IV and oral rat PK (MAP) studies A, B, C of phosphate prodrugs and parent studies A1, B1, C1; format: in vivo, Sprague-Dawley rats; settings: for In vivo conversion in Rats-iv (note 2) MAP study: dose equiv. to 1 mg/Kg of the parent; for In vivo conversion in Rats-iv (note 2) MAP study / In vivo conversion in Rats-oral (note 2) MAP study: full wording: Rapid generation of parent in plasma; for half-life / clearance / Vd: male, Sprague-Dawley, rat, 1 mg/kg; for half-life / clearance / Vd / AUC 0-24 h (μM * hr) / Cmax (uM) / Cp @ 24 hr p.o. (nM): rats; for half-life: after IV prodrug dosing equivalent to 1 mpk of parent, read-out: T1/2 i.v. (converted); for half-life / AUC 0-24 h (μM * hr) / Cmax (uM) / Cp @ 24 hr p.o. (nM): analyte = label; for clearance / Vd: prodrug IV equivalent to 1 mpk of parent; for clearance: read-out: CL i.v.; for Vd: read-out: Vss i.v.; for In vivo conversion in Rats-oral (note 2) MAP study: dose equiv. to 5 mg/Kg of the parent; for AUC 0-24 h (μM * hr) / Cmax (uM) / Cp @ 24 hr p.o. (nM): after PO prodrug dosing equivalent to 5 mpk of parent
Protocol: The rats for oral dosing studies were fasted overnight. […] The dosing solutions of all three prodrugs for both IV and oral administration were prepared in 100% normal saline at 1 mg/mL (dosing solution concentrations were parent compound equivalent). Plasma samples were collected in EDTA vacutainers over 24 hrs, and analyzed by LC/MS/MS for both the prodrugs and parent molecules. Pharmacokinetic analysis was performed on Kinetica™.
Plasma and tissue samples were collected and stored at −20° C. until analysis. […] Rats were fasted overnight in PO studies. […] In the PO studies, rats (n=3) received PO doses of 5 and 100 mg/kg.
Male Sprague-Dawley rats (300-350 g, Hilltop Lab Animals, Inc., Scottdale, Pa.) with cannulas implanted in the jugular vein and/or bile duct were used. The rats were fasted overnight in the PO pharmacokinetic studies. Blood samples of 0.3 ml were collected from the jugular vein in EDTA-containing microtainer tubes (Becton Dickinson, Franklin Lakes, N.J.), and centrifuged to separate plasma.

physchem = settings: pH 6.5, aqueous buffer
[4] = test system: HIV-1 T-tropic strain LAI; assay: Antiviral assay: HIV-1 LAI infection of MT-2 cells, reverse transcriptase readout (EC50, Table 48); format: cell-based; settings: Human immunodeficiency virus 1, MT2, read-out: EC50-LAI
Description: The materials and experimental procedures used to assess the anti-HIV activity of the parent compounds which are generated from the prodrugs in vivo are described below:
• The human T cell line MT-2 and PM1 (AIDS Research and Reference Reagent Program, National Institutes of Health) were maintained and propagated in Medium RPMI-1640 (Invitrogen, Carlsbad, Calif.), containing 10% fetal Bovine serum. (FBS, Sigma, St. Louis, Mo.).
• Laboratory strains of HIV-1—the T-tropic strain LAI was obtained through the AIDS Research and Reference Reagent Program, National Institutes of Health. It was amplified in MT-2 cells and titered using a virus yield assay (2). Detection was achieved through use of a reverse transcriptase assay (3), adapted for use with a Scintillation Proximity detection protocol (1) (Amersham Biosciences, Piscataway, N.J.).
• 1. Compounds stocks were prepared by dissolving in DMSO to 30 mM. For dilution plates, compounds were serially diluted 3-fold into DMSO, using 96-well polypropylene plates, so that the concentrations were 100-fold greater than the final assay concentration. For antiviral and cytotoxicity assays, 2 μl was added per well (1% final DMSO concentration). • 2. Compounds were added from dilution plates to 96 well tissue culture plates, containing 100 μl Medium RPMI-1640, containing 10% fetal bovine serum at a concentration of <20 μM. • 3. For antiviral assays, cells were infected at a multiplicity of infection of 0.005. After 1 h at 37° C., infected cells were diluted to 200,000 cells per ml in Medium RPMI-1640, containing 10% fetal bovine serum. 100 μl of this solution was added per well, giving a final volume of 200 μl. • 4. Plates were incubated at 37° C. in a humidified CO2 incubator and harvested after 5 days. • 5. Viral infections were monitored by measuring reverse transcriptase activity in the supernatants of infected wells as described above. The percent inhibition for each compound was calculated by quantifying the readout level in cells infected in the presence of each compound as a percentage of that observed for cells infected in the absence of compound and subtracting such a determined value from 100. • 6. An EC50 provides a method for comparing the antiviral potency of the compounds of this invention. The effective concentration for fifty percent inhibition (EC50) was calculated with the Microsoft Excel Xlfit curve fitting software. For each compound, curves were generated from percent inhibition calculated at 8 different concentrations by using a four paramenter logistic model (model 205).

[5] = Cytotoxicity assay (XTT dye reduction) in MT-2 cells; format: cell-based; settings: human, six days
[6] = 2-week oral dose rat toxicology / TK study F; format: in vivo; settings: for AUC(0-t): Sprague-Dawley, rat, plasma, oral, dosages 200 mg/kg/day, read-out: AUC0-24 h on Day 14
Protocol: In the 2-week oral rat study F (n=six/sex/group), Compound IVe was administered at daily doses of 15, 75, or 200 mg/kg. […] On Day 14, AUC0-24 h values were slightly higher in females (≦644 μg*hr/ml) compared to males (526.88 μg*hr/ml) at dosages 200 mg/kg/day. The oral (PO) results from Study F are in Table 5.

T1 sequence (P05187 23-506 limits assumed): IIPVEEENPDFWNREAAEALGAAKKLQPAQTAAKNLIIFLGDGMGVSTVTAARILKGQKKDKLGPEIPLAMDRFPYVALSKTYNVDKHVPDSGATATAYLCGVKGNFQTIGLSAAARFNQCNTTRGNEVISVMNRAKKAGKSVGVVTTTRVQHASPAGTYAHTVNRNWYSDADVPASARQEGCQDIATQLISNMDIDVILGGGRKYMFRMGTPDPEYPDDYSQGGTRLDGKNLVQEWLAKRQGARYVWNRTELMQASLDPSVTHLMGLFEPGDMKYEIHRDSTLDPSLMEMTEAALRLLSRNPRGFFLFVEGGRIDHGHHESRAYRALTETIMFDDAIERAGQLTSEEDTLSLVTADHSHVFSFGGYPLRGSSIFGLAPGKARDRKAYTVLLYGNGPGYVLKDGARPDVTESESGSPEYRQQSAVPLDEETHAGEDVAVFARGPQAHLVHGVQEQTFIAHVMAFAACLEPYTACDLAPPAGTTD

Compound: O=C(C(=O)N1CCN(C(=O)c2ccccc2)CC1)c1cn(COP(=O)([O-])[O-])c2c(-n3ccnn3)ncc(F)c12.[Na+].[Na+] [Ib]
In vitro conversion in Alkaline phosphatase (note 1) [2]: Complete
In vivo conversion in Rats-iv (note 2) MAP study [3]: Rapid
half-life ([3]; in vivo): 108 ± 72 min
clearance ([3]; in vivo): 46 ± 10 mL/min/kg
Vd ([3]; in vivo): 0.97 ± 0.47 L/kg
In vivo conversion in Rats-oral (note 2) MAP study [3]: Rapid
AUC 0-24 h (μM * hr) [3]: LLQ
Cmax (uM) [3]: LLQ
Cp @ 24 hr p.o. (nM) [3]: LLQ
solubility (physchem): > 8000 µg/mL

Compound: COc1cnc(-n2ccc(C)n2)c2[nH]cc(C(=O)C(=O)N3CCN(C(=O)c4ccccc4)[C@H](C)C3)c12 [IVd]
EC50 [4]: < 1 µM
CC50 at 6 days [5]: > 10 µM

Compound: COc1cnc(-n2cnc(C)n2)c2[nH]cc(C(=O)C(=O)N3CCC(=C(C#N)c4ccccn4)CC3)c12 [IVe, 2-(1-(2-(4-methoxy-7-(3-methyl-1H-1,2,4-triazol-1-yl)-1H-pyrrolo[2,3-c]pyridin-3-yl)-2-oxoacetyl)piperidin-4-ylidene)-2-(pyridin-2-yl)acetonitrile]
AUC(0-t) ([6]; female, females): ≤ 644 µg·h/mL
AUC(0-t) ([6]; male, males): 527 µg·h/mL
autoinduction or accumulation ([6]; toxicokinetic evaluations on days 1 and 14): no evidence of autoinduction or accumulation
parent molecule in plasma following PO dosing of prodrug [1]: detected in the plasma

Compound: O=C(C(=O)N1CCN(c2ncnc3ccccc23)CC1)c1c[nH]c2c(-n3ccnn3)ncc(F)c12 [IVf]
parent molecule in plasma following PO dosing of prodrug [1]: detected in the plasma

Now from value to molecule:

F (%) (calc on historical IV data for parent) ([1]; rat, diester prodrug IIe PO 7.0 mg/kg (IVe eq), PK of IVe only): 7.7%
Cp @ 24 hr p.o. ([1]; rat, diester prodrug IIe PO 7.0 mg/kg (IVe eq), PK of IVe only, 1/3 rats): 8.17 (1/3 rats) nM
Compound: COc1cnc(-n2cnc(C)n2)c2c1c(C(=O)C(=O)N1CCC(=C(C#N)c3ccccn3)CC1)cn2COP(=O)(OC(C)(C)C)OC(C)(C)C [IIe]

In vitro conversion in Alkaline phosphatase (note 1) [2]: Complete
solubility (physchem): 1000 µg/mL (≈ 1710 µM)
Compound: COc1cnc(-n2cnc(C)n2)c2c1c(C(=O)C(=O)N1CCN(C(=O)c3ccccc3)CC1)cn2COP(=O)(O)O [Ic]

In vitro conversion in Alkaline phosphatase (note 1) [2]: Complete
In vivo conversion in Rats-iv (note 2) MAP study [3]: Rapid
clearance ([3]; plasma): 16 ± 0.95 mL/min/kg
Vd ([3]; plasma): 0.095 ± 0.001 L/kg
half-life ([3]; plasma, iv): 8.4 ± 1.2 min
In vivo conversion in Rats-oral (note 2) MAP study [3]: Rapid
AUC 0-24 h (μM * hr) [3]: LLQ
Cmax (uM) [3]: LLQ
Cp @ 24 hr p.o. (nM) [3]: LLQ
solubility (physchem): > 18000 µg/mL
Compound: COc1cnc(OC)c2c1c(C(=O)C(=O)N1CCN(C(=O)c3ccccc3)CC1)cn2COP(=O)(O)O [Ia]
